Tested on: HIV-1 (strain IIIB)
Assay: Antiviral HIV activity in combination, tetrazolium-based (MTS) colorimetric checkerboard assay in MT-4 cells
Format: cell-based
Details: HIV-1 IIIB infected MT-4 cells, 5 days
Procedure: Antiviral HIV activity was measured by means of a tetrazolium-based colorimetric procedure in the human T-cell leukemia virus (HTLV-1) transformed cell line MT-4. Aliquots of test compound were diluted vertically across a deep-well master assay plate, in medium (RPMI 1640, 10% vol./vol. fetal bovine serum (FBS), and 10 μg/mL gentamicin), at concentrations that were approximately 40-fold higher than the final assay concentration. Serial dilutions were made at either 1:2 or 1:3.16 ratios. HIV inhibitors were diluted horizontally across master assay plates, also in concentrations that were approximately 40-fold higher than the final assay concentration. Small aliquots of both the vertically-diluted and the horizontally-diluted compounds were combined in daughter plates using an automated 96-well pipetting system (RapidPlate-96, Zymark Corp.). Checkerboard style dilutions were arranged so that every concentration of test compound was tested in the presence and absence of every concentration of the HIV inhibitors. Anti-HIV activity tests were performed in triplicate assays, or more, of each combination. Exponentially growing MT-4 cells were harvested and centrifuged at 1,000 rpm for 10 minutes in a Jouan centrifuge (Model CR 4 12). Cell pellets were re-suspended in fresh medium (RPMI 1640, 20% vol./vol. FBS, 20% vol./vol. IL-2, and 10 μg/mL gentamicin) to a density of 1.25×10^6 cells/mL. Cell aliquots were infected by the addition of HIV-1 (strain IIIB) diluted to give a viral multiplicity of infection (MOI) of 73 pfU per 1×10^4 cells. A similar cell aliquot was diluted with medium to provide a mock-infected control. Cell infection was allowed to proceed for 1 hour at 37° C. in a tissue culture incubator with humidified 5% CO2 atmosphere. After the 1 hour incubation the virus/cell suspension was added to each well of the plates containing pre-diluted compounds. Plates were then placed in a tissue culture incubator with humidified 5% CO2 for 5 days. At the end of the incubation period, […] of CellTiter 96 MTS reagent (Promega no. G3581) was added to each well of the incubation plate. Plates were incubated at 37° C. for 2 to 3 hours to allow for color development. O.D. was measured at […] using a microplate absorbance reader (Tecan no. 20-300).
HIV-1 strain IIIB, wild-type laboratory strain, virus titer=6.896 E4 TCID50/mL.
Although some assay formats might theoretically miss antagonism due to combination cytotoxicity, the approach described here should not miss an antagonistic effect. The readout in the MT-4 cell assay utilizes MTS, a tetrazolium-based staining reagent where changes in optical density (O.D.) of the reagent are used to estimate the total cell number remaining after treatment. Final MT-4 cell numbers may decrease due to two effects. First, an HIV-induced cytotoxicity may occur when HIV kills greater than 75% of the MT-4 cells during the 5 days following infection. Second, a compound-induced cytotoxicity may occur, where the compound either directly kills the MT-4 cells or prevents cell growth (stasis) over the 5 days in either infected or uninfected cells. In either of these situations the O.D. is low as compared with infected cells protected by anti-HIV-1 compounds or relative to untreated and uninfected control cells. Since both cytotoxic effects and antagonism of anti-HIV activity would lead to lower O.D. we should not miss an antagonistic effect due to combination cytotoxicity, but could underestimate synergistic combinations.
Within assay combination cytotoxicity was evaluated by comparing wells containing the uninfected MT-4 cells from the assay plates that contained the highest concentration of test compound or the comparator compound, with wells containing […] MT-4 cells under the corresponding highest combination concentrations. For each of these values there is one well per assay plate and thus at least 3 wells per combination assay. […]

C[C@@H]1CCO[C@H]2Cn3cc(C(=O)NCc4ccc(F)cc4F)c(=O)c(O)c3C(=O)N12 [formula (I)]
interaction (deviation from dosewise additivity) of anti-HIV activity (in combination with abacavir): synergistic | interaction (deviation from dosewise additivity) of anti-HIV activity (in combination with adefovir): additive | interaction (deviation from dosewise additivity) of anti-HIV activity (in combination with amprenavir): synergistic | interaction (deviation from dosewise additivity) of anti-HIV activity (in combination with efavirenz): synergistic | interaction (deviation from dosewise additivity) of anti-HIV activity (in combination with enfuvirtide): synergistic | interaction (deviation from dosewise additivity) of anti-HIV activity (in combination with lopinavir): synergistic | interaction (deviation from dosewise additivity) of anti-HIV activity (in combination with maraviroc): additive | interaction (deviation from dosewise additivity) of anti-HIV activity (in combination with nevirapine): synergistic | interaction (deviation from dosewise additivity) of anti-HIV activity (in combination with raltegravir): additive | interaction (deviation from dosewise additivity) of anti-HIV activity (in combination with stavudine): synergistic | effect of the presence of ribavirin on anti-HIV activity (in the presence of ribavirin): not affected
